These results are taken from patent US11000529B2, “Human papilloma virus replication inhibitors” (Icosagen Cell Factory OÜ, priority 2015, dated 2021).

pIC50: −log10 of the molar value. Entries after “also recorded” stand apart in the source; their conditions may differ.

Data set [1] relates to HPV18. The data set can be described thus: HPV18 initial amplification replication assay in U2OS cells (Southern Blot). The class given is cell-based. The following applies: for pIC50: 120 h, read-out: IC50 of HPV18 initial amplification; for inhibition of HPV18 initial amplification: HPV18 wt minicircle, 5 days, Southern Blot, relative to DMSO; for HPV18 replication after shRNA downregulation: 3 and 4 days after transfection, vs empty shRNA plasmid. The text has this:
FIG. 2 Effect of the identified five compounds on HPV18 initial amplification. A: U2OS cells were transfected with HPV18 wt minicircle and grown in the presence of the compounds with indicated concentrations for 5 days. Genomic DNA was extracted, linearized, and digested with DpnI. HPV genome replication signals were detected using Southern Blot analyses and quantified with phosphoimager and expressed relative to vehicle control (DMSO). Approximate IC50 values are shown for each compound. Error-bars represent standard deviation from at least three independent experiment. B: U2OS cells were transfected with the expression vectors of HPV18 E1 and E2 proteins together with HPV18 URR (origin) minicircle plasmid. The cells were grown in the presence of the compounds with indicated concentrations for 24 or 48 hours. Genomic DNA was extracted, linearized and digested with DpnI. HPV URR replication signals were detected by Southern Blot analyses. DMSO serves as vehicle control and M 18URR serves as size marker.
(§1) Replication assay. The U2OS or U2OS-EBNA1 cells were transfected with 2 ug of HPV18 minicircle genome and lug of oriP plasmid (only in case of U2OS-EBNA1 cells). All the compounds were added to the media immediately after the transfection and media was changed on the third day. Replication signals were detected with Southern Blot method. Briefly, genomic DNA was extracted 3 and 4 days after the transfection with sh_RNAs or with the use of ABT-888 and 5 days after for analyses of the effects of HPV inhibitors w/wo CPT. DNA was digested with BglI and DpnI for analyses of HPV18 replication and with BstXI, ScaI and DpnI for analyses of HPV18 and oriP replication simultaneously. 3 ug of DNA was resolved in agarose gel, transferred to a nylon membrane (Membrane Solutions LLC) and hybridized with specific radioactively labeled probes. Signals were detected and quantified with Typhoon Trio+ phosphoimager (GE Healthcare) and exposed on an X-ray film (AGFA).
for compounds inhibiting initial amplification of HPV18 genome in U2OS cells. HT-screening was conducted with all the compounds in this library in 5 uM and 1 uM concentrations and it gave us 80 hits (approximately 5% of analyzed compounds). After validation of the hits on HPV18 wt genome, we found five compounds inhibiting initial amplification of HPV18 in U2OS cells (FIG. 1). To further characterize the compounds, we performed replication assay described in Example 1.

Data set [2] has as its system HPV18. The data set can be described thus: HPV18 replication in U2OS-EBNA1 cells, compounds alone or with CPT. Type of data set: cell-based. The note with it: 5 days; for synergistic effect together with CPT on HPV18 replication: U2OS-EBNA1, with 2 nM CPT. The procedure: FIG. 5 Synergistic effect between Camptothecin (CPT) and the identified five compounds. U2OS-EBNA1 cells were transfected with HPV18 wt and oriP plasmids and grown in the presence of indicated concentrations of the compounds alone or together with 2 nM CPT for 5 days. Genomic DNA was extracted, linearized and digested with DpnI. Both HPV18 and oriP replication signals were detected with Southern Blot and quantified by phosphoimager. […] Error-bars represent standard deviations from at least three independent experiments.
as §1
Synergistic effect of Campthotecin (CPT) and HPV18 replication inhibitors. CPT is a Topoisomerase I inhibitor that stabilizes entrapped Top1cc complexes to DNA. Since Tdp1 is responsible for cleaving entrapped Top1cc complexes from DNA, synergistic effect between CPT and Tdp1 inhibitors occurs. In the experiments shown in FIG. 5 we used U2OS cells constitutively expressing Epstein Barr virus (EBV) EBNA1 protein—U2OS-EBNA1. These cells allow to monitor HPV and EBNA1 supported oriP plasmid replication simultaneously. […] U2OS-EBNA1 cells were cotransfected with HPV18 genome and oriP plasmid and the cells were grown in the presence of various concentrations of the identified HPV inhibitors alone or together with 2 nM of CPT for 5 days, DMSO was used as vehicle control.

Data set [3] deals with HPV18. The data set can be described thus: Vegetative amplification of HPV18 in U2OS #1.13 cells, confluent. The class given is cell-based. The following applies: U2OS #1.13, confluent, compounds added on 5th day for additional 7 days. The procedure: (§2) FIG. 3 Effect of compounds on stable maintenance and vegetative amplification of HPV18. A: U2OS #1.13 cells were grown in subconfluent conditions in the presence of the identified five compounds for 7 days. Genomic DNA was extracted, linearized and HPV replication signal was detected by Southern Blot and B: quantified by phosphoimager. C: U2OS #1.13 were seeded and grown for 5 days without splitting. On the 5th day indicated concentrations of compounds were added to the media and the cells were grown for additional 7 days without splitting. On the 12th day genomic DNA was extracted, linearized and HPV replication signal was detected by Southern Blot and D: quantified by phosphoimager. Error-bars represent standard deviations from at least two independent experiments.
If #1.13 is grown in confluent conditions for at least 5 days, vegetative amplification of HPV genome is turned on. We seeded equal amounts of cells onto plates and grew them for 5 days without splitting. On the 5th day various concentrations of compound were added and the cells were grown for additional 7 days (media was changed every two days throughout the experiment). HPV replication signal was detected by Southern Blot analyses and quantified with phosphoimager.

Data set [4] has as its system HPV18. As to the kind of experiment: Stable maintenance of HPV18 in U2OS #1.13 cells, subconfluent. Type of data set: cell-based. The following applies: U2OS #1.13, subconfluent, 7 days; for HPV18 replication signal lost: compared to DMSO control. Here is the method:
as §2
Our U2OScell-based system is suitable for studying all three replication stages of various HPV subtypes. Stable maintenance phase could be monitored by maintaining HPV-positive cells in subconfluent conditions. We used HPV18 positive monoclonal U2OS cell-line #1.13 with viral copy number ˜2000. We grew the #1.13 cells in the presence of various concentration of compounds in subconfluent conditions (cells were split every three days) for 7 days. HPV18 replication signal was detected by Southern blot analyses and quantified with phosphoimager. About 50% of the signal was lost in case of compound 82269 compared to the DMSO control (FIG. 3, panel A, compare lanes 4-6 with lane 15 and panel B).

The next data set concerns the target Tdp (Homo sapiens, UniProt Q9NUW8). The following applies: known from the literature; cited from earlier work.
The next data set deals with PARP1. As to the kind of experiment: Western Blot of PARP1 after shRNA in U2OS cells. The class given is cell-based. The text has this:
(§3) FIG. 4 Involvement of Tdp1 and PARP1 in HPV18 initial amplification. A: U2OS cells were transfected with HPV18 wt minicircle and sh_Tdp1 plasmid. Genomic DNA was extracted 3 and 4 days after the transfection, linearized and digested with DpnI. HPV replication signal was detected with Southern Blot analyses and B: quantified with phosphoimager. C: Western Blot analyses showing downregulation of Tdp1 protein by shRNA. D: U2OS cells were transfected with HPV18 wt minicircle and sh_PARP1 plasmid. HPV replication signal was detected with Southern Blot analyses and E: quantified with phosphoimager. F: Western Blot analyses showing downregulation of PARP1 protein by shRNA. G: U2OS cells were transfected with HPV18 wt minicircle and grown for 3 and 4 days in the presence of different concentrations of PARP1 inhibitor ABT-888. HPV replication signal was detected with Southern Blot analyses and H: quantified with phosphoimager. Error-bars represent standard deviations from at least three independent experiments.
(§4) Western Blot. The cells were lysed with Laemmli buffer (4% SDS, 20% glycerol, 120 mM Tris-Cl (pH 6.8), and 200 mM DTT) and boiled for 10 minutes at 100° C. […] Tdp1 and PARP1 were detected with their specific antibodies from Santa Cruz Biotechnology: sc-365674 and sc-56197 respectively. Tubulin (used as loading control) was detected using Sigma Aldrich antibody T9026. […]
Background: A western blot detects proteins with antibodies after separation by electrophoresis.

Another data set deals with Tdp1. The data set can be described thus: Western Blot of Tdp1 after shRNA in U2OS cells. Type of data set: cell-based.
From the text: as §3, §4

Sequence of Tdp (Q9NUW8 whole entry): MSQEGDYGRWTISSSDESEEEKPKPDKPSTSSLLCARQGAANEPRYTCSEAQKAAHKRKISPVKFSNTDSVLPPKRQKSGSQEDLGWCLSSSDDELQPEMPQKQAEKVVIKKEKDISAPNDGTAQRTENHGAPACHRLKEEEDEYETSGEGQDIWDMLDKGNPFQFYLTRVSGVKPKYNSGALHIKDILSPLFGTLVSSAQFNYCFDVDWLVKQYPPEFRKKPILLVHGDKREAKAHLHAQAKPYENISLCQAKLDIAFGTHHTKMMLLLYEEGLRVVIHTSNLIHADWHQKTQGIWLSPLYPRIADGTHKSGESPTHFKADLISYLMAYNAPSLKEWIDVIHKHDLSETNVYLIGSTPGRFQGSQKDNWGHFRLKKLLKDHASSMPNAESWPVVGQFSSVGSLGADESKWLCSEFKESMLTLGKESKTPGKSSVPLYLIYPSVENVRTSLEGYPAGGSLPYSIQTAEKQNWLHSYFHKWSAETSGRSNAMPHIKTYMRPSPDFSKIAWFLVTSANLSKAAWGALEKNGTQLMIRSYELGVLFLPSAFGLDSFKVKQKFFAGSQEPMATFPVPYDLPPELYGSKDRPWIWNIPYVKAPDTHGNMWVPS

For `C[C@]1(c2nc3c(C(N)=O)cccc3[nH]2)CCCN1` [ABT-888, veliparib, reference compound], the “HPV18 replication in presence of PARP1 inhibitor” value in the data set with HPV18 [1] (3 and 4 days, various concentrations, vs DMSO) is “HPV18 replication is decreased”.
On to `CC[C@@]1(O)C(=O)OCc2c1cc1n(c2=O)Cc2cc3ccccc3nc2-1` [CPT, Camptothecin, reference compound], for which the “HPV18 initial amplification, CPT alone” value in the data set with HPV18 [2] (U2OS-EBNA1, 2 nM) is given as “did not inhibit”.
As for `CSc1ncc2[nH]c(C(O)c3ccccc3)nc2n1` (stereo not drawn) [NSC82269], the “effect on vegetative amplification of HPV18” value with HPV18 [3] is given as “clear concentration-dependent inhibition; also recorded: clearly inhibit”. In addition, in the data set with HPV18 [1], the pIC50 (as a rule, the IC50 on a negative log10 scale, so that one unit is a factor of ten) was 4.22 to 5.60 and the “inhibition of HPV18 initial amplification” value is “concentration-dependent inhibition”. The “synergistic effect together with CPT on HPV18 replication” value (“synergistic effect together with CPT” for short) in the data set with HPV18 [2] is on record as “no synergistic effect; also recorded: does not”. In the data set on HPV18 [4], the “effect on stable maintenance of HPV18” value is given as “clearly inhibit” and the “HPV18 replication signal lost” value is given as “About 50%”.
Consider `Cc1cc(O)cc2c1[C@H]1CC[C@]3(C)C(=O)CC[C@H]3[C@H]1C=C2` [NSC 9782], for which the “effect on vegetative amplification of HPV18” value in the data set on HPV18 [3] is on record as “did not have any effect; also recorded: does not inhibit any of the later replication stages”. In the data set with HPV18 [1], the pIC50 was 4.22 to 5.60 and the “inhibition of HPV18 initial amplification” value is “concentration-dependent inhibition”. Also, the “synergistic effect together with CPT” value in the data set with HPV18 [2] is “clear concentration dependent synergistic effect; also recorded: clear synergistic inhibition”. The “effect on stable maintenance of HPV18” value in the data set on HPV18 [4] was “no significant reduction in signal; also recorded: does not inhibit any of the later replication stages”.
Turning to `C[C@]12CC[C@H]3[C@H](CCC4=CC(=O)CC[C@@]43C)[C@@H]1CC[C@@H]2C(=O)COS(=O)(=O)c1ccc(Br)cc1` [NSC 88915], the Tdp inhibition result at Tdp is recorded as “known to inhibit Tdp”. In the data set on HPV18 [3], the “effect on vegetative amplification of HPV18” value is recorded as “did not have any effect”. In the data set on HPV18 [1], the pIC50 is 4.22 to 5.60 and the “inhibition of HPV18 initial amplification” value is given as “concentration-dependent inhibition”. Also, in the data set on HPV18 [2], the “synergistic effect together with CPT” value was “clear concentration dependent synergistic effect; also recorded: clear synergistic inhibition”. Besides, in the data set on HPV18 [4], the “effect on stable maintenance of HPV18” value is recorded as “only inhibits stable maintenance phase” and the “HPV18 replication signal lost” value is recorded as “about 70%”.
Regarding `CC(=O)OC1CCC2(C)C(CCC3C2CC(=O)C2(C)C3CC(N3CC3)C2C(C)=O)C1` (stereo not drawn) [NSC 109128], the “effect on vegetative amplification of HPV18” value in the data set on HPV18 [3] is “almost completely abolished amplification; also recorded: clearly inhibit”. Further, in the data set on HPV18 [1], the pIC50 is 4.22 to 5.60 and the “inhibition of HPV18 initial amplification” value is “concentration-dependent inhibition”. Also, in the data set on HPV18 [2], the “synergistic effect together with CPT” value is recorded as “clear concentration dependent synergistic effect; also recorded: clear synergistic inhibition”. Moreover, in the data set on HPV18 [4], the “effect on stable maintenance of HPV18” value is reported as “clearly inhibit” and the “HPV18 replication signal lost” value is “about 70%”.
For the compound “shRNA_PARP1: PARP1 shRNA plasmid, SEQ ID NO: 2, expression under RNA polymerase III promoter U6 (DNA GGACTCGCTCCGGATGGCCTTCAAGAGAGGCCATCCGGAGCGAGTCC) [reference compound]”, in the data set with HPV18 [1], the “HPV18 replication after shRNA downregulation” value is listed as “inhibits HPV18 replication significantly”. In the data set with PARP1, the PARP1 expression entry was “decreased”.
“shRNA_Tdp1: Tdp1 shRNA plasmid, SEQ ID NO: 1, expression under RNA polymerase III promoter U6 (DNA GCACGATCTCTCTGAAACAAACTCGAGTTTGTTTCAGAGAGATCGT) [reference compound]”: the Tdp1 expression entry in the data set with Tdp1 is reported as “decreased significantly”. Further, in the data set on HPV18 [1], the “HPV18 replication after shRNA downregulation” value is listed as “clear decrease in HPV18 replication”.
